Data from patent US20240041028A1, “DELIVERY SYSTEM FOR PLANT PROTECTION” (Omya International AG, priority 2021, published 2024).

Test system: Botrytis cinerea strain SAS 56
Assay: Efficacy of pyrimethanil tablets against Botrytis on tomato fruits
Assay type: in vivo
Settings: 6 days after inoculation (6 dpi); active applied one day prior to inoculation, 80 μl per hole
Source text: • Tablets loaded with pyrimethanil (sample V3.3, 2.1 wt.-%, prepared according to Example 4) • Hydromagnesite tablets unloaded • Fungicide Espiro SC, commercially available from Omya Agro • Pure pyrimethanil powder, commercially available from Pluorochem Ltd • Five plastic trays with lids • Screwdriver • Eppendorf Pipette […] • Tomato fruits (calibration 47-57 mm) • Inoculum: Spore suspension of Botrytis cinerea strain SAS 56 (3×10^5 spores/ml), commercially available from DSMZ collection.
• Treatment 1: Untreated check. • Treatment 2: Tablets loaded with pyrimethanil (sample V3.3, 2.1 wt.-%, prepared according to Example 4) (0.03 gr active/tablet). • Treatment 3: Unloaded hydromagnesite tablet. • Treatment 4: Fungicide Espiro (appl. rate 0.125% (v/v based on the total amount of prepared treatment solution (solution amount: 50 ml, see below), resulting in pyrimethanil active 400 gr/1). • Treatment 5: Pure pyrimethanil active diluted in ethanol of 99% purity.
• Treatment 1: Only inoculum applied • Treatment 2: In 50 ml of water 1 tablet was dissolved. […]
Three days after the inoculation the first symptoms in the untreated check were detected. […]

For Cc1cc(C)nc(Nc2ccccc2)n1 [Pyrimethanil], which “Botrytis spore germination / mycelium growth on tomato fruits” value is on record?
The value was “no mycelium was produced”.
